# Test results published in patent publication US10988459B2 (priority 2015, dated 2021).
# Target: human RIP1 kinase domain (2-375) (Homo sapiens (Human), UniProt Q13546)
# Experiment: biochemical
# Type: biochemical
# Settings: human RIP1 kinase domain (2-375), Transcreener ADP assay, 50 uM ATP, 2 hours incubation; read-out: RIP1 Ki
# Outline: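 50 nM purified kinase domain from baculovirus-infected insect cells, incubated 2 h with compound in 50 mM Hepes pH 7.5, 30 mM MgCl2, 1 mM DTT, 50 uM ATP, 0.002% Brij-35, 0.5% DMSO. ADP formation read by Transcreener FP at 633 nm excitation. Ki^app fitted with the Morrison tight-binding equation.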
# human RIP1 kinase domain (2-375), sequence (Q13546 2-375): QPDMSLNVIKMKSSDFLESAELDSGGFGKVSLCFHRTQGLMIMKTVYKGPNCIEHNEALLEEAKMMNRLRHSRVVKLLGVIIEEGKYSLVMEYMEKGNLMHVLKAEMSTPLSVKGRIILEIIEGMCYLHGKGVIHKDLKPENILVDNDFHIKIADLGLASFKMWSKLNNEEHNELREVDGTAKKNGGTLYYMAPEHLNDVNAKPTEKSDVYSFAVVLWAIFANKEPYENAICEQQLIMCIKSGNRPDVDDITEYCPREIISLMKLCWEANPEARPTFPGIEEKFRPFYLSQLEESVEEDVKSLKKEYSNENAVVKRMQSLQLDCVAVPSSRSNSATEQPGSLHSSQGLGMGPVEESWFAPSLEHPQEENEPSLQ
row,Structure (SMILES),Ki [nM]
1,"Cc1cc2n(n1)CC[C@H](NC(=O)c1ncn(C(C)c3ccc(F)cc3)n1)C(=O)N2C (stereo partly drawn) [Example 270, N—((S)-2,4-dimethyl-5-oxo-5,6,7,8-tetrahydro-4H-pyrazolo[1,5-a][1,3]diazepin-6-yl)-1-(1-(4-fluorophenyl)ethyl)-1H-1,2,4-triazole-3-carboxamide]",88.5
2,"Cc1cc2n(n1)CC[C@H](NC(=O)c1ncn(C(C)c3ccccc3)n1)C(=O)N2C (stereo partly drawn) [Example 271, N—((S)-2,4-dimethyl-5-oxo-5,6,7,8-tetrahydro-4H-pyrazolo[1,5-a][1,3]diazepin-6-yl)-1-(1-phenylethyl)-1H-1,2,4-triazole-3-carboxamide]",93.6
3,"Cc1nn2c(c1C)N(C)C(=O)[C@@H](NC(=O)c1ncn(Cc3cccc(F)c3F)n1)CC2 [Example 272, (S)-1-(2,3-difluorobenzyl)-N-(2,3,4-trimethyl-5-oxo-5,6,7,8-tetrahydro-4H-pyrazolo[1,5-a][1,3]diazepin-6-yl)-1H-1,2,4-triazole-3-carboxamide]",45.2
4,"Cc1nn2c(c1C)N(C)C(=O)[C@@H](NC(=O)c1ncn(Cc3ccc(F)c(F)c3)n1)CC2 [Example 273, (S)-1-(3,4-difluorobenzyl)-N-(2,3,4-trimethyl-5-oxo-5,6,7,8-tetrahydro-4H-pyrazolo[1,5-a][1,3]diazepin-6-yl)-1H-1,2,4-triazole-3-carboxamide]",46.7
5,"Cc1nn2c(c1C)N(C)C(=O)[C@@H](NC(=O)c1ncn(Cc3ccccc3)n1)CC2 [Example 274, (S)-1-benzyl-N-(2,3,4-trimethyl-5-oxo-5,6,7,8-tetrahydro-4H-pyrazolo[1,5-a][1,3]diazepin-6-yl)-1H-1,2,4-triazole-3-carboxamide]",39.5
6,"CC[C@@]1(C)OCc2cnc(C(=O)N[C@H]3CCn4nc(C)cc4N(C)C3=O)cc21 [Example 275, (R)—N—((S)-2,4-dimethyl-5-oxo-5,6,7,8-tetrahydro-4H-pyrazolo[1,5-a][1,3]diazepin-6-yl)-1-ethyl-1-methyl-1,3-dihydrofuro[3,4-c]pyridine-6-carboxamide]",1100
7,"CC[C@@]1(C)OCc2cnc(C(=O)N[C@H]3CCn4nc(C)c(C)c4N(C)C3=O)cc21 [Example 276, (R)-1-ethyl-1-methyl-N—((S)-2,3,4-trimethyl-5-oxo-5,6,7,8-tetrahydro-4H-pyrazolo[1,5-a][1,3]diazepin-6-yl)-1,3-dihydrofuro[3,4-c]pyridine-6-carboxamide]",93.6
8,"CN1C(=O)[C@@H](NC(=O)c2nnn3c2CC(C(F)(F)C(F)(F)F)CC3)COc2ccccc21 (stereo partly drawn) [Example 277, N—((S)-5-methyl-4-oxo-2,3,4,5-tetrahydrobenzo[b][1,4]oxazepin-3-yl)-5-(perfluoroethyl)-4,5,6,7-tetrahydro-[1,2,3]triazolo[1,5-a]pyridine-3-carboxamide]",23.9
9,"Cc1ccc(Cn2cnc(C(=O)NC3CCn4nc(C5CC5)cc4N(C)C3=O)n2)cn1 (centres unmarked) [Example 278, N-(2-cyclopropyl-4-methyl-5-oxo-5,6,7,8-tetrahydro-4H-pyrazolo[1,5-a][1,3]diazepin-6-yl)-1-((6-methylpyridin-3-yl)methyl)-1H-1,2,4-triazole-3-carboxamide]",516
10,"CN1C(=O)[C@@H](NC(=O)c2n[nH]c3ncc(C(F)(F)F)cc23)COc2ccccc21 [Example 279, (S)—N-(5-methyl-4-oxo-2,3,4,5-tetrahydrobenzo[b][1,4]oxazepin-3-yl)-5-(trifluoromethyl)-1H-pyrazolo[3,4-b]pyridine-3-carboxamide]",98.1
11,"Cc1nn2c(c1C)N(C)C(=O)[C@@H](NC(=O)c1ncn(Cc3ccc(F)cc3F)n1)CC2 [Example 280, (S)-1-(2,4-difluorobenzyl)-N-(2,3,4-trimethyl-5-oxo-5,6,7,8-tetrahydro-4H-pyrazolo[1,5-a][1,3]diazepin-6-yl)-1H-1,2,4-triazole-3-carboxamide]",50.9
12,"Cc1nn2c(c1C)N(C)C(=O)[C@@H](NC(=O)c1ncn(Cc3ccc(F)cc3)n1)CC2 [Example 281, (S)-1-(4-fluorobenzyl)-N-(2,3,4-trimethyl-5-oxo-5,6,7,8-tetrahydro-4H-pyrazolo[1,5-a][1, 3]diazepin-6-yl)-1H-1,2,4-triazole-3-carboxamide]",38.7
13,"CN1C(=O)[C@@H](NC(=O)c2nnc(Cc3ccccc3)o2)CCn2nc(C3CC3)cc21 [Example 282, (S)-5-benzyl-N-(2-cyclopropyl-4-methyl-5-oxo-5,6,7,8-tetrahydro-4H-pyrazolo[1,5-a][1,3]diazepin-6-yl)-1,3,4-oxadiazole-2-carboxamide]",59.4
14,"CN1C(=O)[C@@H](NC(=O)c2ncn(Cc3ccccc3)n2)CCn2nc(C3CC3(F)F)cc21 (stereo partly drawn) [Example 283, 1-benzyl-N-((6S)-2-(2,2-difluorocyclopropyl)-4-methyl-5-oxo-5,6,7,8-tetrahydro-4H-pyrazolo[1,5-a][1,3]diazepin-6-yl)-1H-1,2,4-triazole-3-carboxamide]",72.2
15,"CN1C(=O)[C@H](NC(=O)c2ncn(Cc3ccccc3)n2)CCn2nc(C3CC3(F)F)cc21 (stereo partly drawn) [Example 284, 1-benzyl-N-((6R)-2-(2,2-difluorocyclopropyl)-4-methyl-5-oxo-5,6,7,8-tetrahydro-4H-pyrazolo[1,5-a][1,3]diazepin-6-yl)-1H-1,2,4-triazole-3-carboxamide]",86.4
16,"CN1C(=O)[C@@H](NC(=O)c2nnc(Cc3ccccc3)[nH]2)CCn2nc(C3CC3(F)F)cc21 (stereo partly drawn) [Example 285, 5-benzyl-N-((6S)-2-(2,2-difluorocyclopropyl)-4-methyl-5-oxo-5,6,7,8-tetrahydro-4H-pyrazolo[1,5-a][1,3]diazepin-6-yl)-4H-1,2,4-triazole-3-carboxamide]",219
17,"CN1C(=O)[C@H](NC(=O)c2nnc(Cc3ccccc3)[nH]2)CCn2nc(C3CC3(F)F)cc21 (stereo partly drawn) [Example 286, 5-benzyl-N-((6R)-2-(2,2-difluorocyclopropyl)-4-methyl-5-oxo-5,6,7,8-tetrahydro-4H-pyrazolo[1,5-a][1,3]diazepin-6-yl)-4H-1,2,4-triazole-3-carboxamide]",92.4
18,"Cc1cc2n(n1)CC[C@H](NC(=O)c1cc3c(cn1)COC3(C)C1CC1)C(=O)N2C (stereo partly drawn) [Example 287, 1-cyclopropyl-N—((S)-2,4-dimethyl-5-oxo-5,6,7,8-tetrahydro-4H-pyrazolo[1,5-a][1,3]diazepin-6-yl)-1-methyl-1,3-dihydrofuro[3,4-c]pyridine-6-carboxamide]",1400
19,"CN1C(=O)C(NC(=O)c2ncn(Cc3ccc(Cl)cc3)n2)CCn2nc(C3CC3)cc21 (centres unmarked) [Example 288, 1-(4-chlorobenzyl)-N-(2-cyclopropyl-4-methyl-5-oxo-5,6,7,8-tetrahydro-4H-pyrazolo[1,5-a][1,3]diazepin-6-yl)-1H-1,2,4-triazole-3-carboxamide]",62.3
20,"Cc1cc2n(n1)CC[C@H](NC(=O)c1ncn(CC3(C)CC3)n1)C(=O)N2C [Example 289, (S)—N-(2,4-dimethyl-5-oxo-5,6,7,8-tetrahydro-4H-pyrazolo[1,5-a][1,3]diazepin-6-yl)-1-((1-methylcyclopropyl)methyl)-1H-1,2,4-triazole-3-carboxamide]",395
21,"CN1C(=O)C(NC(=O)c2n[nH]c(Cc3ccccc3)n2)CCn2cncc21 (centres unmarked) [Example 293, 5-benzyl-N-(1-methyl-2-oxo-2,3,4,5-tetrahydro-1H-imidazo[1,5-a][1,3]diazepin-3-yl)-1H-1,2,4-triazole-3-carboxamide]",72.8
22,"CC[C@@]1(C)OCc2cnc(C(=O)NC3CCn4cncc4N(C)C3=O)cc21 (stereo partly drawn) [Example 294, (1R)-1-ethyl-1-methyl-N-(1-methyl-2-oxo-2,3,4,5-tetrahydro-1H-imidazo[1,5-a][1,3]diazepin-3-yl)-1,3-dihydrofuro[3,4-c]pyridine-6-carboxamide]",557
23,"CN1C(=O)C(NC(=O)c2cn(Cc3ccccc3)nn2)CCn2cncc21 (centres unmarked) [Example 295, 1-benzyl-N-(1-methyl-2-oxo-2,3,4,5-tetrahydro-1H-imidazo[1,5-a][1,3]diazepin-3-yl)-1H-1,2,3-triazole-4-carboxamide]",118
24,"CC(c1cnc2[nH]nc(C(=O)N[C@H]3COc4ccccc4N(C)C3=O)c2c1)C(F)(F)F (stereo partly drawn) [Example 296, N—((S)-5-methyl-4-oxo-2,3,4,5-tetrahydrobenzo[b][1,4]oxazepin-3-yl)-5-(1,1,1-trifluoropropan-2-yl)-1H-pyrazolo[3,4-b]pyridine-3-carboxamide]",61.2
25,"CN1C(=O)[C@@H](NC(=O)c2ncn(Cc3ccccc3)n2)CCn2cncc21 [Example 297, (S)-1-benzyl-N-(1-methyl-2-oxo-2,3,4,5-tetrahydro-1H-imidazo[1,5-a][1,3]diazepin-3-yl)-1H-1,2,4-triazole-3-carboxamide]",20.8
26,"CN1C(=O)[C@H](NC(=O)c2ncn(Cc3ccc(F)cc3F)n2)CCn2nc(C3CC3)cc21 [Example 298, (R)—N-(2-cyclopropyl-4-methyl-5-oxo-5,6,7,8-tetrahydro-4H-pyrazolo[1,5-a][1,3]diazepin-6-yl)-1-(2,4-difluorobenzyl)-1H-1,2,4-triazole-3-carboxamide]",2560
27,"CN1C(=O)[C@@H](NC(=O)c2cc3c(cn2)COC32CCOCC2)COc2ccccc21 [Example 299, (S)—N-(5-methyl-4-oxo-2,3,4,5-tetrahydrobenzo[b][1,4]oxazepin-3-yl)-2′,3′,5′,6′-tetrahydro-3H-spiro[furo[3,4-c]pyridine-1,4′-pyran]-6-carboxamide]",74
28,"Cc1nn2c(c1C)N(C)C(=O)[C@@H](NC(=O)c1nnc(Cc3ccccc3)[nH]1)CC2 [Example 300, (S)-5-benzyl-N-(2,3,4-trimethyl-5-oxo-5,6,7,8-tetrahydro-4H-pyrazolo[1,5-a][1,3]diazepin-6-yl)-4H-1,2,4-triazole-3-carboxamide]",50.4
29,"Cc1cc2n(n1)CC[C@H](NC(=O)c1ncn(Cc3c(F)cccc3F)n1)C(=O)N2C [Example 301, (S)-1-(2,6-difluorobenzyl)-N-(2,4-dimethyl-5-oxo-5,6,7,8-tetrahydro-4H-pyrazolo[1,5-a][1,3]diazepin-6-yl)-1H-1,2,4-triazole-3-carboxamide]",10.4
